Data as given in ChEMBL document CHEMBL3352762 (J Med Chem, 2014).
Calls of active or inactive are those of the source. No cut-off for these calls is given here.

How the values were obtained:
[1] = target: T1, Urotensin-2 receptor (Rattus norvegicus) (UniProt P49684); test: Competitive antagonist activity at UT receptor in rat aorta assessed as effect on urotensin-2-induced contraction; type: tissue-based
T1 sequence (whole entry): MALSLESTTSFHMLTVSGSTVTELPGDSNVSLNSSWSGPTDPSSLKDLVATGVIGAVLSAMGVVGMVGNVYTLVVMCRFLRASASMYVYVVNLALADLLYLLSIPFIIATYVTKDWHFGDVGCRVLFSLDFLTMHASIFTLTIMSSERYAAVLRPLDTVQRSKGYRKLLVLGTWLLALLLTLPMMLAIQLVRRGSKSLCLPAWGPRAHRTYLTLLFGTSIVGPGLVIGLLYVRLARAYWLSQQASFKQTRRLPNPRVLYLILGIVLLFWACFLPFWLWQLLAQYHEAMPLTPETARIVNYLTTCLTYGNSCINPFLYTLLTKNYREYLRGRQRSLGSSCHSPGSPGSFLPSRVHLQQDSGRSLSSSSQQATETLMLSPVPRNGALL

[2] = target: T2, Urotensin-2 receptor (Homo sapiens, UniProt Q9UKP6); test: Displacement of [125I]urotensin-2 from human recombinant UT receptor expressed in CHO-K1 cells by scintillation counting method; type: cell-based
T2 sequence (Q9UKP6 whole entry): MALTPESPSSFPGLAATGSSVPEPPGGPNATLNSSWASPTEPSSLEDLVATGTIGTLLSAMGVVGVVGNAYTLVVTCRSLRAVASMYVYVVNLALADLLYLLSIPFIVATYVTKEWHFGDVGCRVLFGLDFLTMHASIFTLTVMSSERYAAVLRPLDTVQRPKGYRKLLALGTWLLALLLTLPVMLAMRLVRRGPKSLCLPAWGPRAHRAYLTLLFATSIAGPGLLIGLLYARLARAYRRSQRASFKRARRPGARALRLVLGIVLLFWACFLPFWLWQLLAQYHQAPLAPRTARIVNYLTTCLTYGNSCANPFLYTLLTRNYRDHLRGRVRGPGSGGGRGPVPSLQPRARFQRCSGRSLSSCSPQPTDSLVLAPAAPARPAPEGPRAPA

[3] = target: T1, Urotensin-2 receptor (Rattus norvegicus); test: Agonist activity at UT receptor in rat aorta assessed as contraction relative to urotensin-2; type: tissue-based
[4] = target: T3, Urotensin-2 receptor (Homo sapiens) (UniProt Q9UKP6); test: Partial agonist activity at human recombinant UT receptor expressed in CHO-K1 cells assessed as stimulation of intracellular calcium mobilization by FLIPR assay; type: functional, cell-based
T3 sequence (whole entry): T2 sequence (Q9UKP6 whole entry)

[5] = target: T3, Urotensin-2 receptor (Homo sapiens); test: Partial agonist activity at human recombinant UT receptor expressed in CHO-K1 cells assessed as stimulation of intracellular calcium mobilization at 10 uM by FLIPR assay relative to urotensin-2; type: functional, cell-based
[6] = Stability in 25% fetal calf serum assessed as parent compound remaining at 80 uM at 37 degC after 16 hrs by RP-HPLC-UV based detection assay; type: ADME, Bos taurus; conditions: cattle, read-out: Stability
[7] = target: T3, Urotensin-2 receptor (Homo sapiens); test: Partial agonist activity at human recombinant UT receptor expressed in CHO-K1 cells assessed as stimulation of intracellular calcium mobilization at 1 uM by FLIPR assay relative to urotensin-2; type: functional, cell-based
[8] = target: T1, Urotensin-2 receptor (Rattus norvegicus); test: Agonist activity at UT receptor in rat aorta assessed as contraction; type: tissue-based
[9] = Stability in 25% fetal calf serum assessed as parent compound remaining at 80 uM at 37 degC after 36 hrs by RP-HPLC-UV based detection assay; type: ADME, Bos taurus; conditions: cattle, read-out: Stability

pKb [1]: 8.15
Ki [2]: 12 nM
Emax [3]: 0%
Activity [4]: Active
Efficacy [5]: 61.7%
remaining at 16 h, 80 µM [6]: > 70%
Efficacy [7]: 61.4%
pEC50 [8]: inactive
remaining at 36 h, 80 µM [9]: > 50%
SMILES: CC(C)[C@H](NC(=O)[C@@H]1CSSC(C)(C)[C@H](NC(=O)[C@@H](N)CC(=O)O)C(=O)N[C@@H](Cc2ccccc2)C(=O)N[C@H](Cc2c[nH]c3ccccc23)C(=O)N[C@@H](CCCN)C(=O)N[C@@H](Cc2ccc(C#N)cc2)C(=O)N1)C(=O)O
